In patent US20100311821A1, “Synthetic vector” (priority 2009, published 2010):

Test system: λ-DNA
Test: AFM imaging of DNA complexes
Assay type: physicochemical, lambda phage
Conditions: 50 μg/ml λ-DNA, stoichiometric KWK 64 μM (16 μM PP4, 8 μM PP8), 10 mM sodium cacodylate buffer
Method: Preparation of DNA complexes. […] The mixture solution was vortexed for 30 seconds and allowed to equilibrate at room temperature for a few hours. The final DNA concentration was set at 50 μg/ml.
Characterization of DNA complexes structure by Atomic Force Microscopy. DNA complexes were deposited on freshly cleaved mica and then allowed to air dry. Tapping mode AFM imaging was performed on a Digital Instruments Nanoscope […] scanning probe microscope with a multimode head. Silicon probes (VistaProbes T300) with spring constant 40 N/m, resonant frequency, 300 kHz was used to obtain all images.
Long linear lambda phage DNA, λ-DNA, (double-stranded, 48 kbp, MW=3×10^7 Da, contour length—17 μm) in dilute aqueous solution (100 μg ml^−1 DNA in 10 mM pH=6.5 sodium cacodylate buffer containing 0.5 mM EDTA) was used for packaging studies. […] The final DNA concentration was set at 50 μg ml^−1 throughout the studies in this example. The DNA-KWK, DNA-PP4 and DNA-PP8 complex structures were investigated by atomic force microscope (“AFM”) on mica substrates.

For lysine-tryptophan-lysine [KWK], the “DNA compaction (AFM)” value was “No DNA compaction”.
